From patent publication US8883963B2 (Cadila Healthcare Limited, priority 2007, dated 2014)

Key:
DPP IV = DPP IV (Homo sapiens, UniProt P27487); experiment: Stability against DPP IV enzyme; assay type: in vitro ADME; details: 37° C.; for % degradation of peptidomimetics in 24 h when incubated with DPP-IV enzyme: 2 μM peptidomimetic; for half-life at 2 μM: DPP IV enzyme, pH 7.8, 2 μM peptidomimetic, read-out: half-life (t1/2) when incubated with DPP-IV enzyme
Experimental: (§1) Reactions were terminated by the addition of TFA/H2O (15 mL, 10% (v/v)). […] The column was equilibrated with TFA/H20, at a flow rate of 1 mL/min.

[1] = Stability in simulated gastric fluid; assay type: in vitro ADME; details: 2 μM peptidomimetic, simulated gastric fluid pH 1.5, 37° C.; for half-life at 2 μM: read-out: half-life (t1/2) when incubated with simulated gastric fluid
Experimental: as §1

[2] = Stability in simulated intestinal fluid; assay type: in vitro ADME; details: 2 μM peptidomimetic, simulated intestinal fluid pH 7.5, 37° C.; for half-life at 2 μM: read-out: half-life (t1/2) when incubated with simulated intestinal fluid
Experimental: as §1

Human GLP-1 receptor = target: T1, Human GLP-1 receptor (Homo sapiens, UniProt P43220); experiment: In vitro Human GLP-1 R agonist activity (cyclic AMP determination) in CHO/human GLP1R cells; assay type: cell-based
T1 construct: The full-length cDNA was cloned in pcDNA3.1(+); expressed in transfected cells
T1 sequence (P43220 24-463): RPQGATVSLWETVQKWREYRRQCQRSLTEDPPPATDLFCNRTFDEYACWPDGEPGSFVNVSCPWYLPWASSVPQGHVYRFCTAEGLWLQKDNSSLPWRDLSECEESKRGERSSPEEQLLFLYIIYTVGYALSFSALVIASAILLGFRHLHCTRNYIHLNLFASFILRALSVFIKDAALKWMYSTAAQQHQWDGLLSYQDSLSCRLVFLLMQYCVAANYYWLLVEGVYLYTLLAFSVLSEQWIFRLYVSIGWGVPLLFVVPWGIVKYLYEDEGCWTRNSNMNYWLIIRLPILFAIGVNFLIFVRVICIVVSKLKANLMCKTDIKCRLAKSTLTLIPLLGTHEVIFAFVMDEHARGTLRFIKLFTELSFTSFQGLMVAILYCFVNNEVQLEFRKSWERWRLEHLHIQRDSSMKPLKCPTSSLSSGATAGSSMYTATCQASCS

[3] = Stability in liver microsomes; assay type: in vitro ADME; details: 2 μM peptidomimetic, human liver microsomes, 37° C.; for half-life at 2 μM: pH 7.8, read-out: half-life (t1/2) when incubated with liver microsomes
Experimental: as §1

[4] = system: RIN5F (Rat Insulinoma) cells; experiment: In vitro glucose-dependent insulin secretion (RIN5F cell assay screening protocol); assay type: cell-based; details: 16.7 mM glucose load
[5] = Stability in human plasma; assay type: in vitro ADME; details: 2 μM peptidomimetic, pooled human plasma, 37° C.; for half-life at 2 μM: pH 7.8, read-out: half-life (t1/2) when incubated with human plasma
Experimental: as §1

DPP IV, sequence (P27487 whole entry, species assumed): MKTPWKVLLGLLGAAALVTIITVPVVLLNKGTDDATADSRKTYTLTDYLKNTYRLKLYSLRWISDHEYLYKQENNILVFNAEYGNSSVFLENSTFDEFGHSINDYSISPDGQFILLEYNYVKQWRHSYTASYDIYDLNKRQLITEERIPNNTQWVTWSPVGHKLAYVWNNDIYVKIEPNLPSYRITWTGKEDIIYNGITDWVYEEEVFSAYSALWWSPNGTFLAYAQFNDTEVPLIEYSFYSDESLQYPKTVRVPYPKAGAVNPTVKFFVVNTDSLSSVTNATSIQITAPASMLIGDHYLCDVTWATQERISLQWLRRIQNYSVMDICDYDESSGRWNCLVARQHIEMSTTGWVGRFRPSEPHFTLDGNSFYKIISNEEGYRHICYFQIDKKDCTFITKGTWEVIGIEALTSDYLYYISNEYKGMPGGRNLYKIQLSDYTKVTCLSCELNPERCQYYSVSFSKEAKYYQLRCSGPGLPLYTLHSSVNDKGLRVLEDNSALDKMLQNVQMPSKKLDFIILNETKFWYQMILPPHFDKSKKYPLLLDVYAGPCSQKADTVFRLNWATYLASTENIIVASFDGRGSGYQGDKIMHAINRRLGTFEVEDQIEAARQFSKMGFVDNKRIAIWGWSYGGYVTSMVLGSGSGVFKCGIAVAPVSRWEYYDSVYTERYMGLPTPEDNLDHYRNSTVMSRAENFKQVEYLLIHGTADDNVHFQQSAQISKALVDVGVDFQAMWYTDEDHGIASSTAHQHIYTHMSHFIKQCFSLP

| SMILES | % degradation of peptidomimetics in 24 h when incubated with DPP-IV enzyme (DPP IV) [%] | half-life at 2 μM (DPP IV) [min] | % degradation of peptidomimetics in 24 h when incubated with simulated gastric fluid [1] [%] | % degradation of peptidomimetics in 24 h when incubated with simulated intestinal fluid [2] [%] | Human GLP-1 R activity (cAMP release), % activity with respect to control (Human GLP-1 receptor; 1 nM test compound) [%] | Human GLP-1 R activity (cAMP release), % activity with respect to control (Human GLP-1 receptor; 10 nM test compound) [%] | Human GLP-1 R activity (cAMP release), % activity with respect to control (Human GLP-1 receptor; 100 nM test compound) [%] | Human GLP-1 R activity (cAMP release), % activity with respect to control (Human GLP-1 receptor; 1 μM test compound) [%] | Human GLP-1 R activity (cAMP release), % activity with respect to control (Human GLP-1 receptor; 10 μM test compound) [%] | % degradation of peptidomimetics in 24 h when incubated with liver microsomes [3] [%] | half-life at 2 μM [3] [min] | Insulin secretion ([4]; 0.1 nM test compd.) [pg/µg/h] | Insulin secretion ([4]; 1 nM test compd.) [pg/µg/h] | Insulin secretion ([4]; 10 nM test compd.) [pg/µg/h] | % degradation of peptidomimetics in 24 h when incubated with human plasma [5] [%] | half-life at 2 μM [5] [min] | half-life at 2 μM [1] [min] | half-life at 2 μM [2] [min] | half-life (t1/2) when incubated with human plasma [5] | also measured |
| --- | --- | --- | --- | --- | --- | --- | --- | --- | --- | --- | --- | --- | --- | --- | --- | --- | --- | --- | --- | --- |
| CCc1cc(OC)ccc1-c1ccc(CC(NC(=O)[C@H](CC(=O)O)NC(=O)[C@H](CO)NC(=O)[C@@H](NC(=O)[C@H](Cc2ccccc2)NC(=O)[C@@H](NC(=O)CNC(=O)[C@H](CCC(N)=O)NC(=O)[C@H](CO)NC(=O)[C@@H](N)Cc2c[nH]cn2)[C@@H](C)O)[C@@H](C)O)C(=O)NC(CCCc2ccccc2Cl)C(N)=O)cc1 (single isomer, unassigned) [compound 50] | 77 | 540 | 13 | 50 | 60 ± 0.12 | 92 ± 0.15 | 98 ± 0.18 | 99 ± 0.03 | 99 ± 0.09 | 82 | 60 | 15.4 ± 0.14 | 21.2 ± 0.18 | 35.6 ± 0.17 | 80 | 480 |  |  |  | half-life (t1/2) when incubated with simulated gastric fluid [1]: (8) h; half-life (t1/2) when incubated with simulated intestinal fluid [2]: (6) h |
| CCc1cc(OC)ccc1-c1ccc(CC(NC(=O)[C@H](CC(=O)O)NC(=O)[C@H](CO)NC(=O)[C@@H](NC(=O)[C@H](Cc2ccccc2)NC(=O)[C@@H](NC(=O)CNC(=O)C(CCC#N)NC(=O)C(C)(C)NC(=O)[C@@H](N)Cc2c[nH]cn2)[C@@H](C)O)[C@@H](C)O)C(=O)NC(CCCc2ccc(C(F)(F)F)cc2F)C(N)=O)cc1 (single isomer, unassigned) [compound 81] | 00 | > 1440 | 50 | 00 | 69 ± 0.09 | 98 ± 0.07 | 99 ± 0.04 | 99 ± 0.01 | 99 ± 0.08 | 86 | 120 | 17.1 ± 0.15 | 23.1 ± 0.12 | 37.0 ± 0.19 | 00 | > 1440 | 240 | > 1440 |  |  |
| CCc1cc(OC)ccc1-c1ccc(CC(NC(=O)[C@H](CC(=O)O)NC(=O)[C@H](CO)NC(=O)[C@@H](NC(=O)[C@H](Cc2ccccc2)NC(=O)[C@@H](NC(=O)CNC(=O)C(CCC#N)NC(=O)C(C)(C)NC(=O)[C@@H](N)Cc2c[nH]cn2)[C@@H](C)O)[C@@H](C)O)C(=O)NC(CCCc2ccc(F)cc2C(F)(F)F)C(N)=O)cc1 (single isomer, unassigned) [compound 80] | 72 |  | 100 | 100 | 66 ± 0.022 | 97 ± 0.46 | 99 ± 0.41 | 99 ± 0.66 | 99 ± 0.03 | 100 | 30 | 16.2 ± 0.13 | 22.4 ± 0.19 | 36.2 ± 0.09 | 70 |  | 30 | 30 | (9) h |  |
| CCc1cc(OC)ccc1-c1ccc(CC(NC(=O)[C@H](CC(=O)O)NC(=O)[C@H](CO)NC(=O)[C@@H](NC(=O)[C@H](Cc2ccccc2)NC(=O)[C@@H](NC(=O)CNC(=O)C(CCC#N)NC(=O)C(C)(C)NC(=O)[C@@H](N)Cc2c[nH]cn2)[C@@H](C)O)[C@@H](C)O)C(=O)NC(CCCc2ccc(Cl)cc2C)C(N)=O)cc1 (single isomer, unassigned) [compound 32] | 75 |  | 100 | 100 | 39 ± 0.11 | 80 ± 0.09 | 88 ± 0.06 | 96 ± 0.14 | 99 ± 0.19 | 100 | 30 | 12.1 ± 0.52 | 14.1 ± 0.16 | 28.0 ± 0.36 | 77 |  | 30 | 30 | (9) h |  |
| CCc1cc(OC)ccc1-c1ccc(CC(NC(=O)[C@H](CC(=O)O)NC(=O)[C@H](CO)NC(=O)[C@@H](NC(=O)C(C)(Cc2ccccc2F)NC(=O)[C@@H](NC(=O)CNC(=O)[C@H](CC(C(F)(F)F)C(F)(F)F)NC(=O)C(C)(C)NC(=O)[C@H](Cc2c[nH]cn2)NC(C)=O)[C@@H](C)O)[C@@H](C)O)C(=O)NC(CCCc2ccccc2)C(N)=O)cc1 (single isomer, unassigned) [compound 210] | 75 |  | 100 | 100 | 46 ± 0.022 | 85 ± 0.46 | 90 ± 0.41 | 99 ± 0.66 | 99 ± 0.03 | 100 | 30 | 11.9 ± 0.17 | 14.2 ± 0.13 | 27.6 ± 0.16 | 77 |  | 30 | 30 | (9) h |  |
